Experimental data: patent EP4186488A1, “A TOPICAL COMPOSITION” (Unilever IP Holdings B.V., priority 2021, dated 2023)

System: Human primary melanocytes
Assay: melanin content assay (MCA)
Type: cell-based
Details: 72 hours incubation with active(s), wt% of active(s) as listed per example, OD 405nm, untreated cells = 100% melanin content
Experimental: In-vitro studies on the effect of the combination of the actives on melanin inhibition using melanin content assay (MCA) was used. The method is described below. Human primary melanocytes were grown in melanocytes growth medium (MGM) with human melanocyte growth supplement. 500 µL/well (5X10^4 cells/well) of this solution was plated in a 24 wells plate and incubated in an incubator (Thermo Scientific, Model 3111) at 37°C with 5% CO2 atmosphere. After 24 hours of incubation, cell cultures were treated with the lead actives either dissolved in water or DMSO. The cells were again incubated for 72 hours in an incubator (Thermo Scientific, Model 3111; conditions: 5% CO2, at 37°C). Comparative vehicle controls of 0.1 % (v/v) DMSO or media control (for aqueous actives) were also set up simultaneously. At the end of the incubation period, cell viability was determined using the calcein method. After calcein fluorescence readings were obtained, drained the cells and added fresh 0.15 ml of 1N NaOH (in 10% DMSO) per well. Cells were lysed by resuspension and incubation (60 °C/1 hr.). Then, 0.12 ml of this lysate was transferred to a fresh […] plate and measured OD405nm in a TECAN M1000 plate reader (estimate of relative melanin content). The spectrophotometric OD at 405nm for untreated cells (No active) is considered as 100% melanin content, with respect to this, treatment (active) percentage is calculated.

| Structure (SMILES) | % melanin inhibition [%] |
| --- | --- |
| NC(=O)c1cccnc1 [B, Niacinamide] | 7.4 |
| NC(=O)c1cccnc1 [C, Niacinamide] | 9.2 |
| NC(=O)c1cccnc1 [D, Niacinamide] | 6.1 |
| CCCCCCC(O)CCCCCCCCCCC(=O)O (stereo not shown) [E, 12-hydroxystearic acid] | 4.1 |
